Assay results published in ChEMBL document CHEMBL5465560, “Selectivity Literature for EUbOPEN Chemogenomic Library” (2024).

Key:
[1] = molecular target: T1, MAP/microtubule affinity-regulating kinase 4 (Homo sapiens) (UniProt Q96L34); experiment: Selectivity interaction (Kinase panel (DSF assay)) EUB0001558a MARK4
T1 sequence (whole entry): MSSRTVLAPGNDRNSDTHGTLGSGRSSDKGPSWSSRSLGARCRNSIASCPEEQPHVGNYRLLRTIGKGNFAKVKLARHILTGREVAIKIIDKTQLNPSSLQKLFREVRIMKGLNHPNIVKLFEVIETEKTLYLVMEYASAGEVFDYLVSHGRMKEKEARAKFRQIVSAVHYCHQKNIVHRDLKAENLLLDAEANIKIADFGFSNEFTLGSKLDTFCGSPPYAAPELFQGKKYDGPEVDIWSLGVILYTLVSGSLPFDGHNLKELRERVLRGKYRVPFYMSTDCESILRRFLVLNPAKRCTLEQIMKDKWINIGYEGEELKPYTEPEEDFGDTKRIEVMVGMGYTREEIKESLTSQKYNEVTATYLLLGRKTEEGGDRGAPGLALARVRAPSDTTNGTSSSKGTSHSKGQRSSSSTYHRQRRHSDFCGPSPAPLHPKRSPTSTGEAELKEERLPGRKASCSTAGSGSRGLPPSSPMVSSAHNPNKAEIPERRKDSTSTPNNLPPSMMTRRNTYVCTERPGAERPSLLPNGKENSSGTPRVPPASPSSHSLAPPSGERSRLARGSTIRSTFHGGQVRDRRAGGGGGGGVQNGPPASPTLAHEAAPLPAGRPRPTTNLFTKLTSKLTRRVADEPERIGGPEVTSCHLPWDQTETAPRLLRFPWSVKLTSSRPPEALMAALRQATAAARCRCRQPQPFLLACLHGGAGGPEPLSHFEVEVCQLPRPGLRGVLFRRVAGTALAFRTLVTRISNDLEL

[2] = molecular target: KCNE1 (Homo sapiens, UniProt P15382); experiment: Selectivity interaction (Panel of kinases, GPCRs, ion channels and transporters (enzymatic assay)) EUB0000266bCl KCNE1
[3] = test system: eIF-2-alpha kinase GCN2 (Homo sapiens), Q9P2K8 [S808G]; experiment: Selectivity interaction (KinomeScan (DiscoverX)) EUB0001079a EIF2AK4; details: at 1 µM
[4] = molecular target: Fibroblast growth factor receptor 1 (Homo sapiens, UniProt P11362); experiment: Selectivity interaction (KinomeScan (DiscoverX)) EUB0000666a FGFR1; details: at 10 µM
[5] = molecular target: Serine/threonine-protein kinase NIM1 (Homo sapiens, UniProt Q8IY84); experiment: Selectivity interaction (KinomeScan (DiscoverX)) EUB0001049a NIM1K; details: at 1 µM
[6] = molecular target: T2, cAMP-dependent protein kinase catalytic subunit PRKX (Homo sapiens) (UniProt P51817); details: at 10 µM
T2 sequence (whole entry): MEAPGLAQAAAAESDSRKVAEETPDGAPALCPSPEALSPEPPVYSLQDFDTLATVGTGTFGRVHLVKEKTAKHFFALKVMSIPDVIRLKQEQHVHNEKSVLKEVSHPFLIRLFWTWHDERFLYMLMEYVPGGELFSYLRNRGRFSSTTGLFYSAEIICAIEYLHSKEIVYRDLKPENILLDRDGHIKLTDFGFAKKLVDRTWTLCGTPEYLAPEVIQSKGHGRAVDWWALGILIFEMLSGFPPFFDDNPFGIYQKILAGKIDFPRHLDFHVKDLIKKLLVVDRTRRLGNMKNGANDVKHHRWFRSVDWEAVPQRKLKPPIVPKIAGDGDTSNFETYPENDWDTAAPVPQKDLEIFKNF

[7] = molecular target: T3, cGMP-dependent protein kinase 1 (Homo sapiens) (UniProt Q13976); experiment: Selectivity interaction (Ambit KINOMEscan and KiNATiv profiling in Jurkat cells) EUB0000090b PRKG1; assay type: cell-based; details: at 1 µM
T3 sequence (whole entry): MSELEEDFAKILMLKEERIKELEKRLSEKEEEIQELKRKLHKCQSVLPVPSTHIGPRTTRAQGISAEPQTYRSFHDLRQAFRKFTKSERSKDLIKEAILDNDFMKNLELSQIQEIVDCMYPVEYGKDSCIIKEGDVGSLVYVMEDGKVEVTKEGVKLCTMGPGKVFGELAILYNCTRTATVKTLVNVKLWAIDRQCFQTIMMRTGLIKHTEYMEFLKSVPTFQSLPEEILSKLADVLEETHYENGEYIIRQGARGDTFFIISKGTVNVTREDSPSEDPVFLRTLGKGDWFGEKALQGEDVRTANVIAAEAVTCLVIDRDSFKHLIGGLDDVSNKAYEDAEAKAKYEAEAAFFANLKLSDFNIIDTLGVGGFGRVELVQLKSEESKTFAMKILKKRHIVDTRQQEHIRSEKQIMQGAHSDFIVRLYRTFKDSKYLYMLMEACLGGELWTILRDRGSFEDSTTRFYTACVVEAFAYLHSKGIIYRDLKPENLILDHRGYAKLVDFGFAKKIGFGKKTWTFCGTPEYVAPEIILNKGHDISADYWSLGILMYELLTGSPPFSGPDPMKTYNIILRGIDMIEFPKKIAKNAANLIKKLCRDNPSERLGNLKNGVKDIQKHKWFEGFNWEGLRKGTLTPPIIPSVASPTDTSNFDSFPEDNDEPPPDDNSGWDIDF

[8] = molecular target: T4, Histone-arginine methyltransferase CARM1 (Homo sapiens) (UniProt Q86X55); details: at 10 µM
T4 sequence (whole entry): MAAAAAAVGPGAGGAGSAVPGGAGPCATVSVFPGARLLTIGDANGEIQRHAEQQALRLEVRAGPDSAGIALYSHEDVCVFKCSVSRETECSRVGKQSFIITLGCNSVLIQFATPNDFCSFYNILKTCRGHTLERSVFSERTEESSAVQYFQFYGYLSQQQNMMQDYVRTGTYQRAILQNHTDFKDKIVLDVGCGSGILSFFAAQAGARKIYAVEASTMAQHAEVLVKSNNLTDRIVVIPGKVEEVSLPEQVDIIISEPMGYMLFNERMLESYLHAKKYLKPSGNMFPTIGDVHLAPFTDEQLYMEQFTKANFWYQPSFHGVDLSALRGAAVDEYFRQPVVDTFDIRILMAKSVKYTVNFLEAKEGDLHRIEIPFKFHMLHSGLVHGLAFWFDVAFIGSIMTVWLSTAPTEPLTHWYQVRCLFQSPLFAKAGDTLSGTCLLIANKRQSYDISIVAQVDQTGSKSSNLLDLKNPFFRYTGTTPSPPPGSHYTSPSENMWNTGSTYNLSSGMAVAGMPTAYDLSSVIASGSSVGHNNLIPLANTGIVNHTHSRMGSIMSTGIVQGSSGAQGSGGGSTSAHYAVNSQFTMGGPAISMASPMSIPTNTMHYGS

Sequence of Fibroblast growth factor receptor 1 (P11362 22-822 limits assumed): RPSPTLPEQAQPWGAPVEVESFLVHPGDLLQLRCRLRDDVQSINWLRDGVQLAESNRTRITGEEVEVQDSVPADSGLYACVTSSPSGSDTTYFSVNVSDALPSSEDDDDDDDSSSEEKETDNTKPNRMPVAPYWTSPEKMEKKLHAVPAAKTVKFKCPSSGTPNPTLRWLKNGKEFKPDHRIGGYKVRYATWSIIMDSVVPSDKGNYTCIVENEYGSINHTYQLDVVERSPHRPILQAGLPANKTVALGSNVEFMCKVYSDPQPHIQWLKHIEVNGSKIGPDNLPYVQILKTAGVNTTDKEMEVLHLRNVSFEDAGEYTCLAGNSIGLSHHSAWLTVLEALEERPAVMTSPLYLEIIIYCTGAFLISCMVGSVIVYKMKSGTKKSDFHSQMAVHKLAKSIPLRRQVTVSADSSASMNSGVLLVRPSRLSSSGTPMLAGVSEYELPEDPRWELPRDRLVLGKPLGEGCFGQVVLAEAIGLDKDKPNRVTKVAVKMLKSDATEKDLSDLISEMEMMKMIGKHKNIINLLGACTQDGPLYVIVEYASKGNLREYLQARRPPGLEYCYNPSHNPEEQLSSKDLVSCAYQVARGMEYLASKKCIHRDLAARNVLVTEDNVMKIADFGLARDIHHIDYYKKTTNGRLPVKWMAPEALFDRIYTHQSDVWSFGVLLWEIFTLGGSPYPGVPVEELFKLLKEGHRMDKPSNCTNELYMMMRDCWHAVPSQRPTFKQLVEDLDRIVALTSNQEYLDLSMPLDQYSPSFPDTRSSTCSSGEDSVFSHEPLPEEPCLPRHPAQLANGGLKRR
Sequence of eIF-2-alpha kinase GCN2 (Homo sapiens), Q9P2K8 [S808G] (Q9P2K8 whole entry S808G): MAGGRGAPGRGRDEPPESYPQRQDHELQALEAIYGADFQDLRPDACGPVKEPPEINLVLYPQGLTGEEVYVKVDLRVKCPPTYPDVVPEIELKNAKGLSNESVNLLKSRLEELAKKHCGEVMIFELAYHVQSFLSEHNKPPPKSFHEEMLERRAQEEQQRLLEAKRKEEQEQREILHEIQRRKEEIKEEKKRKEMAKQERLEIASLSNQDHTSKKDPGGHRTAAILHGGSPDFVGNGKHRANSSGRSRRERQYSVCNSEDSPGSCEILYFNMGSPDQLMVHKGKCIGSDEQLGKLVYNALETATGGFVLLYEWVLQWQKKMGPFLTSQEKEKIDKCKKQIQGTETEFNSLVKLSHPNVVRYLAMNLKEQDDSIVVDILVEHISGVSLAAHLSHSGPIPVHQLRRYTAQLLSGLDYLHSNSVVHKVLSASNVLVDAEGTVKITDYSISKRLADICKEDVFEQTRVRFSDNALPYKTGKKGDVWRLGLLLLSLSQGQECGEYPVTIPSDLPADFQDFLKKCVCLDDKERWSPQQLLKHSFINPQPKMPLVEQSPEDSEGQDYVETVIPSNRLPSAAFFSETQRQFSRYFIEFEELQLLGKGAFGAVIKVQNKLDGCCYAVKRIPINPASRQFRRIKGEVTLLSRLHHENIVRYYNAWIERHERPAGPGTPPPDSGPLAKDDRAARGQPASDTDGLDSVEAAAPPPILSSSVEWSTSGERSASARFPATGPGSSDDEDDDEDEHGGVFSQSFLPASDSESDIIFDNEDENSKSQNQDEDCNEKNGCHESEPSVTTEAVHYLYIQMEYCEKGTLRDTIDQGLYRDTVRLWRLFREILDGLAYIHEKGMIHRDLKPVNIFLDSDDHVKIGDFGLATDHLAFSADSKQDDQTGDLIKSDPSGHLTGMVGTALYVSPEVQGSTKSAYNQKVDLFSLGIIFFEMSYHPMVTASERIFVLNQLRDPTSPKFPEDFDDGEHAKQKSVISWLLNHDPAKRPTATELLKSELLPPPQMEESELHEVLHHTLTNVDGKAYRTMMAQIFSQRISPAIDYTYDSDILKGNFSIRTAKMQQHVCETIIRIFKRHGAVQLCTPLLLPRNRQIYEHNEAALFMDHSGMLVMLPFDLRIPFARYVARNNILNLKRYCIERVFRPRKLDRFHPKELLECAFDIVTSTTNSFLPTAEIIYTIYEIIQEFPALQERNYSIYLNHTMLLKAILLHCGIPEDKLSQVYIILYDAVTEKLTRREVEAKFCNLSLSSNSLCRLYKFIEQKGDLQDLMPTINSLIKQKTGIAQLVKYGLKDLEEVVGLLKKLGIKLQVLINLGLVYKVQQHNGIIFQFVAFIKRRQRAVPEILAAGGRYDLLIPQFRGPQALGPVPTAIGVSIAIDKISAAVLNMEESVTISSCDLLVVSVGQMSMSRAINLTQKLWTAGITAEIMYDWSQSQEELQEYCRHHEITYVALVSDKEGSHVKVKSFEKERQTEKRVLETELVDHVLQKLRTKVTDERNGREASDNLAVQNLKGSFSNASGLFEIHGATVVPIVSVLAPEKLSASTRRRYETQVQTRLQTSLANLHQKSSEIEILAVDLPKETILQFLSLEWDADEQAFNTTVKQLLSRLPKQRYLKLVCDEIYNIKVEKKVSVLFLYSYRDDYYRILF
Sequence of Serine/threonine-protein kinase NIM1 (Q8IY84 whole entry): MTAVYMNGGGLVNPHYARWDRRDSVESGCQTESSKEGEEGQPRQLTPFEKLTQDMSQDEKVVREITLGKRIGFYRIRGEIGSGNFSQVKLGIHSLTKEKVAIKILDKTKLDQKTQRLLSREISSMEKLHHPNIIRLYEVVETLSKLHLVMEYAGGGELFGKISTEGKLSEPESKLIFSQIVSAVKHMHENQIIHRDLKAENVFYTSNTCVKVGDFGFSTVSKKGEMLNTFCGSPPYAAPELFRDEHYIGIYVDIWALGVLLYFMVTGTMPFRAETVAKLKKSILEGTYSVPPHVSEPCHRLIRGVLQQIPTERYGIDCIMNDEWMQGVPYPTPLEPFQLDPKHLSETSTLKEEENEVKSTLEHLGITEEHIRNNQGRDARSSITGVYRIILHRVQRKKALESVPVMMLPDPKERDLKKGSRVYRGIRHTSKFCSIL

CC(C)(O)[C@H](F)CN1Cc2cc(NC(=O)c3cnn4cccnc34)c(N3CCOCC3)cc2C1=O
dTM [1]: 1.6 K

CCn1c(-c2nc3cc(C(=O)N4CCCC(N)C4)ccc3n2C)cc2ccccc21 (stereo not drawn)
XC50 [2]: > 25.1 µM

Nc1cnc(N2CCc3cc(S(=O)(=O)Nc4c(F)cc(Cl)cc4F)cc(N4CCCC4=O)c32)nc1 [TP-020n]
% of control [3]: 100%

O=C(NOC[C@H](O)CO)c1ccc(F)c(F)c1Nc1ccc(I)cc1F
% of control [4]: 100%

COc1cc(Nc2nc(C)cc(-c3cnn4nc(OC)ccc34)n2)cc(C(F)(F)F)c1
% of control [5]: 94%

COCC(=O)NC/C=C/c1ccc2ncnc(Nc3ccc(Oc4ccc(C)nc4)c(C)c3)c2c1 [CP-724714]
% of control [6]: 100%

CN(C)C/C=C/C(=O)Nc1ccc(C(=O)N2CCCC(Nc3ncc(Cl)c(-c4c[nH]c5ccccc45)n3)C2)cc1 (stereo not drawn)
% of control [7]: 97%

CNCCN1CCC(c2cc(CN(C)C(=O)c3cccc(Oc4ccccc4)c3)ccn2)CC1
% activity [8]: 1%
